This is an account of results in US6500840B2, “Quinuclidine-substituted heteroaryl moieties for treatment of disease” (Pharmacia & Upjohn Company, priority 2000, dated 2002).

pKi: −log10 of the molar value.

α7 nAChR (Rattus norvegicus, UniProt Q05941), sequence (Q05941 23-502): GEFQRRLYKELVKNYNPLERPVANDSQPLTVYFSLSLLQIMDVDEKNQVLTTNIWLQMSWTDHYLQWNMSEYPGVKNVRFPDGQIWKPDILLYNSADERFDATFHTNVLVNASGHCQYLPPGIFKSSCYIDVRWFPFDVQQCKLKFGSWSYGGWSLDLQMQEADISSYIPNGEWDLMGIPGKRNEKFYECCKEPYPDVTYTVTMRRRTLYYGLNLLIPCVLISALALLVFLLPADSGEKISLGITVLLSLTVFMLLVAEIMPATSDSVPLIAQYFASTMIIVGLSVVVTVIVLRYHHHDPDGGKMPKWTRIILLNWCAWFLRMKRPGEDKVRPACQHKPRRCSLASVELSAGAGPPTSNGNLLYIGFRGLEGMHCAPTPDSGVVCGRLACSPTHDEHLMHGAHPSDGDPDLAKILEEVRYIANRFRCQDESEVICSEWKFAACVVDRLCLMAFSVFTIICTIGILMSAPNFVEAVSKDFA
α7 nAChR (Homo sapiens, UniProt P36544), sequence (P36544 23-502): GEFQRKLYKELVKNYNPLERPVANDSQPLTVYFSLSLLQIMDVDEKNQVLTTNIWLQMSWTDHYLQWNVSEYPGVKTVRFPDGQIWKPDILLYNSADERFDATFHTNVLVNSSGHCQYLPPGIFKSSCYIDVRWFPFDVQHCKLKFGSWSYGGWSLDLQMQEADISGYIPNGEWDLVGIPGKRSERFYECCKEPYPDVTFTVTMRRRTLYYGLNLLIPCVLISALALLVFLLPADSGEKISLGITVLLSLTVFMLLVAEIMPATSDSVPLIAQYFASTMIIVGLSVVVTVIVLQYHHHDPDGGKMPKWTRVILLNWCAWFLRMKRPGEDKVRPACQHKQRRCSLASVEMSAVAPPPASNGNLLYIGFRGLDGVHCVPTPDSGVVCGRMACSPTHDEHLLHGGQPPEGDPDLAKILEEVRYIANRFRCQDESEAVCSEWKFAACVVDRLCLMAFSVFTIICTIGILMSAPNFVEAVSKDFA

For one experiment, the target named is T1, 5HT3R (Homo sapiens, UniProt P46098).
T1 sequence (P46098 24-478): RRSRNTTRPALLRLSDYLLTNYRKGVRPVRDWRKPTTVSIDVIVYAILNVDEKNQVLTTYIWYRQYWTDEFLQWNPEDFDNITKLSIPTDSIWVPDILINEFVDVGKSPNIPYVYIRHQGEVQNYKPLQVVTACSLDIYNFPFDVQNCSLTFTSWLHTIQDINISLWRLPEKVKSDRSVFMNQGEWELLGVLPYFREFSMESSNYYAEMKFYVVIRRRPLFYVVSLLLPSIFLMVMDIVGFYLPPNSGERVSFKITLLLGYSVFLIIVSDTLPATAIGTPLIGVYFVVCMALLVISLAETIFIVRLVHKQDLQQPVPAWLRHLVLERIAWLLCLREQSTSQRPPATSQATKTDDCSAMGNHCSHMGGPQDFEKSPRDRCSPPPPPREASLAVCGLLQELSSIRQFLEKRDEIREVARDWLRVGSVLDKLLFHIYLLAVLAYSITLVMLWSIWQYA
Assay: not given
Particulars: cited from earlier work.
As for `COc1ccc(/C=C2\CCCN=C2c2cccnc2)c(OC)c1` [GTS-21], the “activity at the 5HT3R” value was “little activity”.

The next experiment concerns the target α7 nAChR (Homo sapiens, UniProt P36544).
Assay: not given
The following applies: cited from earlier work.
Regarding `Cc1nccn1CC1CCc2c(c3ccccc3n2C)C1=O` (stereo not drawn) [Ondansetron], the “activity at the α7 nAChR” value is on record as “little activity”.

A further experiment concerns the target α7 nAChR (Rattus norvegicus, UniProt Q05941). Put plainly: [3H]-MLA competition binding assay, rat brain membranes. The following applies: Ki, inhibition of [3H]-MLA binding (3.0 to 4.0 nM), Sprague-Dawley rat whole brain minus cerebellum homogenate, 1 hour at 25° C.
Protocol: Membrane Preparation. Male Sprague-Dawley rats (300-350 g) are sacrificed by decapitation and the brains (whole brain minus cerebellum) are dissected quickly, weighed and homogenized in 9 volumes/g wet weight of ice-cold 0.32 M sucrose using a rotating pestle on setting 50 (10 up and down strokes). The homogenate is centrifuged at 1,000×g for 10 minutes at 4° C. The supernatant is collected and centrifuged at 20,000×g for 20 minutes at 4° C. The resulting pellet is resuspended to a protein concentration of 1-8 mg/mL. Aliquots of 5 mL homogenate are frozen at −80° C. until needed for the assay.
Binding Assay. […] Filters are pre-soaked in 50 mm Tris HCl pH 7.0-0.05% polyethylenimine. The filters are rapidly washed two times with 5 mL aliquots of cold 0.9% saline and then counted for radioactivity by liquid
Data Analysis. […] Hill coefficients were obtained using non-linear regression (GraphPad Prism sigmoidal dose-response with variable slope).
Regarding `CC(C)(C)c1ccc(-c2ccc(C(=O)N[C@H]3CN4CCC3CC4)o2)cc1` [Example 140, N-[(3R)-1-azabicyclo[2.2.2]oct-3-yl]-5-(4-tert-butylphenyl)-furan-2-carboxamide 4-methylbenzenesulfonate], the pKi was 7.19 to 7.46.

Take `O=C(N[C@H]1CN2CCC1CC2)c1ccc(-c2cc3ccccc3s2)o1` [Example 141, N-[(3R)-1-azabicyclo[2.2.2]oct-3-yl]-5-(1-benzothien-2-yl)-furan-2-carboxamide 4-methylbenzenesulfonate]: the pKi was 6.56 to 6.59.

With `O=C(N[C@H]1CN2CCC1CC2)c1ccc(-c2cc3ccccc3o2)o1` [Example 146, N-[(3R)-1-azabicyclo[2.2.2]oct-3-yl]-5-(1-benzofuran-2-yl)-furan-2-carboxamide 4-methylbenzenesulfonate], the pKi is 6.85 to 7.46.

Compound `Nc1ccccc1-c1ccc(C(=O)N[C@H]2CN3CCC2CC3)o1` [Example 147, 5-(2-Aminophenyl)-N-[(3R)-1-azabicyclo[2.2.2]oct-3-yl]-furan-2-carboxamide bis(4-Methylbenzenesulfonate)] gave a pKi of 8.52 to 8.70.

With `O=C(N[C@H]1CN2CCC1CC2)c1ccc(C#Cc2ccccc2)o1` [Example 150, N-[(3R)-1-Azabicyclo[2.2.2]oct-3-yl]-5-(phenylethynyl)-furan-2-carboxamide 4-Methylbenzenesulfonate], the pKi is 6.48 to 6.54.

Compound `O=C(N[C@H]1CN2CCC1CC2)c1ccc(Oc2ccccc2)o1` [Example 151, N-[(3R)-1-Azabicyclo[2.2.2]oct-3-yl]-5-phenoxy-furan-2-carboxamide 4-Methylbenzenesulfonate] had a pKi of 6.08 to 6.65.

With `Cn1c(C(=O)N[C@H]2CN3CCC2CC3)ccc1-c1ccccc1` [Example 152, N-[(3R)-1-Azabicyclo[2.2.2]oct-3-yl]-1-methyl-5-phenyl-1H-pyrrole-2-carboxamide], the pKi was 7.19 to 7.70.

Turning to `O=C(N[C@H]1CN2CCC1CC2)c1ncc(-c2ccccc2)o1` [Example 153, N-[(3R)-1-azabicyclo[2.2.2]oct-3-yl]-5-phenyl-1,3-oxazole-2-carboxamide 4-methylbenzenesulfonate], the pKi was 5.81.

For the compound `O=C(N[C@H]1CN2CCC1CC2)c1nc(-c2ccccc2)no1` [Example 154, N-[(3R)-1-azabicyclo[2.2.2]oct-3-yl]-3-phenyl-1,2,4-oxadiazole-5-carboxamide 4-methylbenzenesulfonate], the pKi was < 6.00.

`O=C(N[C@H]1CN2CCC1CC2)c1cnc(-c2ccccc2)o1` [Example 155, N-[(3R)-1-azabicyclo[2.2.2]oct-3-yl]-2-phenyl-1,3-oxazole-5-carboxamide 4-methylbenzenesulfonate] had a pKi of 5.86.

Usually pKi stands for the negative decadic logarithm of the Ki, by convention in mol/L. Higher therefore signals a low Ki.
